The inhibition is the change of the read-out against control, counted positive when it falls. For orientation: IC50 means the concentration that gives 50% inhibition. A lower IC50 goes with inhibition by little substance.

These results are taken from ChEMBL document CHEMBL6182898, “Design, synthesis and bioevaluation of novel hydrazide derivatives as enhancers of immunotherapy and DNA-damage response in antitumor therapy” (Eur J Med Chem, 2025).

Data set [1] has as its system B16-F10. Briefly: Induction of antitumor immunity in mouse B16-F10 cells assessed as reduction in PD-L1 level incubated for 24 hrs by Western blot analysis. Format: functional, cell-based. The settings on record: dose 2.5-10 µM. For orientation: Immunoblotting shows a protein as a band on a membrane.
The subject of the next data set is SK-OV-3. Briefly: cells. The settings on record: Homo sapiens, time 72 hrs. Format: functional.
Data set [2] has as its system 4T1. Briefly: cells. Format: functional. The settings on record: Mus musculus, time 72 hrs.
Data set [3] concerns B16-F10. Briefly: cells. Format: functional. The settings on record: Mus musculus, time 72 hrs.
In data set [4] the test system is K562. Briefly: cells. The format is functional. The conditions noted are these: Homo sapiens, time 72 hrs.
The test system of data set [5] is 4T1. Briefly: Antiproliferative activity against mouse 4T1 cells incubated for 72 hrs by MTT assay. The format is functional, cell-based. The conditions noted are these: 4T1, 72 h.
A further data set relates to HCT-116. Briefly: Antiproliferative activity against human HCT-116 cells incubated for 72 hrs by MTT assay. The format is functional, cell-based. The settings on record: HCT-116, 72 h. A general note: Tetrazolium dyes change colour on reduction, which living cells bring about.
The test system of data set [6] is K562. Briefly: Antiproliferative activity against human K562 cells incubated for 72 hrs by CCK8 assay. The format is functional, cell-based. The settings on record: K562, 72 h.
Data set [7] in a line: Antiproliferative activity against human HK-2 cells incubated for 72 hrs by MTT assay.
Another data set has as its target Histone deacetylase 1 (Homo sapiens, UniProt Q13547). Briefly: Inhibition of HDAC1 (unknown origin).
Data set [8] deals with T1, Protein deacetylase HDAC6 (Homo sapiens, UniProt Q9UBN7).
T1 sequence (Q9UBN7 whole entry): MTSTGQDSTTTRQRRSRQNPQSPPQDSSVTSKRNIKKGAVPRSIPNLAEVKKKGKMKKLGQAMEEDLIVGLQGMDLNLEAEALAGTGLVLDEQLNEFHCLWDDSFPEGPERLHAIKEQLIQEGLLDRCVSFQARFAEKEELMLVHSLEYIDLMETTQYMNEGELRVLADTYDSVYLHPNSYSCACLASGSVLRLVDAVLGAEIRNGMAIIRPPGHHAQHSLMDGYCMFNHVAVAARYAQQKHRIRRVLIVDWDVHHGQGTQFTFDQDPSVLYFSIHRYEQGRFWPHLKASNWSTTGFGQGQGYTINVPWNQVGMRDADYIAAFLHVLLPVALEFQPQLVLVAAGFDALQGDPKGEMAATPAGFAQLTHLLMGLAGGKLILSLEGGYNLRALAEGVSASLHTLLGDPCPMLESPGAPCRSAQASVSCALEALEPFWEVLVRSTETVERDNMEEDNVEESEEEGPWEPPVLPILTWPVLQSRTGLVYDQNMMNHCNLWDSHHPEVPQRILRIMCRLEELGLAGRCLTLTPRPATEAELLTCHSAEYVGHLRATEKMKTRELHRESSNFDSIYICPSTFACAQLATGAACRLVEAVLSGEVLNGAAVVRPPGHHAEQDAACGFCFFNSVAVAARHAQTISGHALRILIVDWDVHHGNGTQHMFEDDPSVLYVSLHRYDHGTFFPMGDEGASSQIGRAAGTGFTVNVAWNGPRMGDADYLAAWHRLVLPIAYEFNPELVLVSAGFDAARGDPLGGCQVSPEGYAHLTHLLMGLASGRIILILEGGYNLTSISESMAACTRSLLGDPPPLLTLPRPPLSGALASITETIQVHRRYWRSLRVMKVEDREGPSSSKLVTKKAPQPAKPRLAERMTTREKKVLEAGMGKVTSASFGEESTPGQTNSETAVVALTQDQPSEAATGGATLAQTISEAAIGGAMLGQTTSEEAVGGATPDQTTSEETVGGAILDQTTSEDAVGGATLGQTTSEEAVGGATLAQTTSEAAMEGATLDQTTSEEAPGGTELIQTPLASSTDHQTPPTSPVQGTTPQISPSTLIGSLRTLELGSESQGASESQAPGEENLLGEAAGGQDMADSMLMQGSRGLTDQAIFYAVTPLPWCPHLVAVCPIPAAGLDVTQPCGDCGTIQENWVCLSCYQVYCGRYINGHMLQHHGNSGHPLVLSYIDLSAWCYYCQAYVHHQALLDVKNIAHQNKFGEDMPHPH
Briefly: Inhibition of HDAC6 (unknown origin).

The test system of data set [9] is B16-F10. Briefly: Inhibition of cell migration in mouse B16-F10 cells at 5 uM by transwell assay relative to control. Format: functional.
The test system of data set [10] is B16-F10. Briefly: Inhibition of cell invasion in mouse B16-F10 cells at 5 uM by transwell assay relative to control. Format: functional.
The test system of data set [11] is B16-F10. Briefly: Anti-migratory activity in mouse B16-F10 cells at 1.25 to 5 uM measured after 36 hrs by wound healing assay relative to control. Format: functional. The settings on record: dose 1.25-5 µM.
Data set [12] relates to B16-F10. Briefly: Induction of apoptosis in mouse B16-F10 cells incubated for 48 hrs by Annexin V-FITC/PI staining based flow cytometry. Format: functional, cell-based. The settings on record: dose 2.5-10 µM. Background: A flow cytometer gives signals particle by particle.
The subject of data set [13] is B16-F10. Briefly: Induction of apoptosis in mouse B16-F10 cells assessed as late-stage apoptosis at 2.5 uM incubated for 48 hrs by Annexin V-FITC/PI staining based flow cytometry relative to control. Format: functional.
Data set [14] concerns B16-F10. Briefly: Induction of apoptosis in mouse B16-F10 cells assessed as late-stage apoptosis at 10 uM incubated for 48 hrs by Annexin V-FITC/PI staining based flow cytometry relative to control. The format is functional.
Data set [15] concerns the target T2, Histone deacetylase 3 (Mus musculus) (UniProt O88895).
T2 sequence (whole entry): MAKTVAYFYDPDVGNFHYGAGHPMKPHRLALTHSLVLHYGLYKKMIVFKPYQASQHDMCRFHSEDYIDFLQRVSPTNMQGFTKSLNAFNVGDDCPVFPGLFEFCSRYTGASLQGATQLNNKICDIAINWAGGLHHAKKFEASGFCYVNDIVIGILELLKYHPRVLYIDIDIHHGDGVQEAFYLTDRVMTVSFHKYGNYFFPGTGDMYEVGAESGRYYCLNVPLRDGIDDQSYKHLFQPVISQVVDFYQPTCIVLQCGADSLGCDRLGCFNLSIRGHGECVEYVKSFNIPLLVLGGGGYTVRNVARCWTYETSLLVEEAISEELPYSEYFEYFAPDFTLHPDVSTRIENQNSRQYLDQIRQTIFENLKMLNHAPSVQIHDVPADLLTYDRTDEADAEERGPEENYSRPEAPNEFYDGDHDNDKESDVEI
Briefly: Inhibition of HDAC3 in mouse B16-F10 cells assessed as increase in Ac-H3 level incubated for 24 hrs by Western blot analysis. The format is cell-based. The conditions noted are these: dose 2.5-10 µM.

In data set [16] the test system is B16-F10. Briefly: Upregulation of Ac-alpha-tubulin level in mouse B16-F10 cells at 2.5 to 10 uM incubated for 24 hrs by Western blot analysis. Format: functional, cell-based. The conditions noted are these: dose 2.5-10 µM.
Data set [17] relates to B16-F10. Briefly: Induction of antitumor immunity in mouse B16-F10 cells assessed as increase in IFN-gamma level incubated for 24 hrs by Western blot analysis. The format is functional, cell-based. The settings on record: dose 2.5-10 µM.
For data set [18], the target named is T2, Histone deacetylase 3 (Mus musculus). Briefly: Inhibition of HDAC3 in mouse B16-F10 cells assessed as reduction in PD-L1 level at 2.5 uM incubated for 24 hrs by immunofluorescence based analysis. The format is cell-based.
For data set [19] the target is unchanged. Briefly: Inhibition of HDAC3 in mouse B16-F10 cells assessed as increase in Ac-H3 level at 2.5 uM incubated for 24 hrs by immunofluorescence based analysis. The format is cell-based.

Activity calls are given as the source filed them. No cut-off for these calls is given here. A value given as a limit tells only on which side of the number the result lay.

Sequence of Histone deacetylase 1 (Q13547 whole entry): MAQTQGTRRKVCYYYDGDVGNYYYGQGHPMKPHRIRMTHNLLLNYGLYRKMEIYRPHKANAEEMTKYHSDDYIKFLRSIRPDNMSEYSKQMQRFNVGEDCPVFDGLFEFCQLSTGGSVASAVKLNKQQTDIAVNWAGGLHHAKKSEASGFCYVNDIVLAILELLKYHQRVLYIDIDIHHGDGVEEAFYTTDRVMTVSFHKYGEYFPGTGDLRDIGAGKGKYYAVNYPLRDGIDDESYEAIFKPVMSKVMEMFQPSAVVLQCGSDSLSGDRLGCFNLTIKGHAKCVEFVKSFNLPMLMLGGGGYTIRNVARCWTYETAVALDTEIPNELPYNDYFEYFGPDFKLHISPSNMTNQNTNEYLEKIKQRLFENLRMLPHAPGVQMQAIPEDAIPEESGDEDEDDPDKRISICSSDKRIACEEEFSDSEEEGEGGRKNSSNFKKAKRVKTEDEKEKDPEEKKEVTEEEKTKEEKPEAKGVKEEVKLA

Turning to `CCCNNC(=O)CCCCCCNC(=O)c1cnc(-c2ccc(NC(=O)OC(C)(C)C)cc2)s1`, the Activity result with B16-F10 [1] was “Dose-dependent-effect; Activity Was Similar To Ms-275”; with B16-F10 [11], over 80%; in the data set on B16-F10 [12], “Dose-dependent-effect; Activity Similar To Vorinostat”; in the data set on B16-F10 [13], 20.6%; with B16-F10 [14], 51.5%; in the data set on B16-F10 [17], “Dose-dependent-effect; Activity Was Similar To Ms-275”. For the same compound, the inhibition at 10 µM is under 50% in the data set with SK-OV-3, 33.1% in the data set on 4T1 [2], 60.7% with B16-F10 [3] and 73.1% with K562 [4]. For the same compound, the half-maximal inhibitory concentration (IC50) was 9.83 µM in the data set on 4T1 [5]; 3.31 µM in the data set on HCT-116; 1.06 µM with K562 [6]; 4.68 µM on Histone deacetylase 1; over 10 µM in data set [8]. Further, the IC50 at 72 h in data set [7] stood at 11.5 µM. For the same compound, the inhibition at 5 µM in the data set on B16-F10 [9] and in the data set on B16-F10 [10] was over 70% each time. In data set [15], the inhibition result was “Dose-dependent-effect”. The result with B16-F10 [16] was inactive. Besides, the inhibition entry in data set [18] and in data set [19] was “Active” in each case.
For the compound `CCCNNC(=O)c1ccc(NC(=O)c2cnc(-c3ccc(OC(F)(F)F)cc3)s2)cc1`, the Activity result is on record as “Dose-dependent-effect; Activity Was Similar To Ms-275” in the data set on B16-F10 [1]; over 80% in the data set with B16-F10 [11]; “Dose-dependent-effect; Activity Similar To Vorinostat” in the data set on B16-F10 [12]; 24% with B16-F10 [13]; 55.3% with B16-F10 [14]; “Dose-dependent-effect; Activity Was Similar To Ms-275” with B16-F10 [17]. Moreover, the inhibition at 10 µM is under 50% with SK-OV-3, 32.8% with 4T1 [2], 54.7% in the data set with B16-F10 [3] and 52.6% in the data set with K562 [4]. In addition, the IC50 was 7.57 µM in the data set on 4T1 [5]; 1.67 µM in the data set with HCT-116; 4.57 µM in the data set with K562 [6]; 1.57 µM at Histone deacetylase 1; over 10 µM in data set [8]. In addition, the IC50 at 72 h in data set [7] is 10.9 µM. Besides, the inhibition at 5 µM in the data set with B16-F10 [9] and in the data set with B16-F10 [10] was over 70% throughout. Besides, the inhibition result in data set [15] is “Dose-dependent-effect”. Further, in the data set with B16-F10 [16], the result was inactive. The inhibition result in data set [18] and in data set [19] was “Active” each time.
